Assay results reported in patent US20260138959A1, “QUINAZOLINE DERIVATIVE COMPOUND AND USE THEREOF” (VORONOI INC., priority 2021, published 2026).
pIC50: −log10 of the molar value.

What was measured:
[1] = system: Ba/F3-TEL-PDGFβ(WT); test: Proliferation inhibitory activity on Ba/F3 cell (CellTiter-Glo, 72 hours), PDGFR-β; format: cell-based; settings: Mus musculus, BaF3, read-out: Ba/F3 (nM) Tel-PDGFRβ (GI50 class)
Method: Ba/F3-TEL-PDGFRα(WT), Ba/F3-TEL-PDGFβ(WT), Ba/F3-c-KIT(D816V) (Kyinno, #KC-0138), c-KIT V560G/D816V, c-KIT D814Y were seeded at 3×10^3/100 μl/well in a clear bottom white 96-well plate. A culture solution containing compounds of 12 concentrations (0.00001-2 mM) serially diluted in 3 folds and the DMSO control group was added at 0.5 μl/well each to a final concentration of 0.00005-10 μM, and then incubated in a CO2 incubator at 37° C. for 72 hours. After 72 hours, the plate treated with the compound was taken out, CellTiter-Glo® Assay (Promega) solution was treated with 100 μl/well, followed by mixing well. After mixing well for about 10 minutes at room temperature, […] was measured using a microplate reader. The data were presented as percentages in proportion to treated cells based on the vehicle, GI50 (nM) values were calculated using GraphPad Prism 8.3.0 (GraphPad software Inc., San Diego).
The inhibitory activities of Ba/F3 expressing PDGFR-α, PDGFR-β, c-KIT(D816V), c-KIT V560G/D816V, and c-KIT D814Y measured as described above were measured and shown in Table 7 below (A: GI50≤200 nM; B: 200 nM<GI50≤500 nM; C: GI50>500 nM).

[2] = system: Ba/F3-c-KIT(D816V); test: Proliferation inhibitory activity on Ba/F3 cell (CellTiter-Glo, 72 hours), c-KIT(D816V); format: cell-based; settings: Mus musculus, BaF3, read-out: Ba/F3 (nM) c-KIT (D816V) (GI50 class)
Summary of the method: (§1)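 In this assay, Ba/F3 transfectants are treated for 72 h at 37 °C with serially diluted compound (final 0.00005-10 μM), and viable cells are quantified by CellTiter-Glo. Results are expressed relative to vehicle to give GI50 in nM.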

[3] = system: c-KIT V560G/D816V; test: Proliferation inhibitory activity on Ba/F3 cell (CellTiter-Glo, 72 hours), c-KIT V560G/D816V; format: cell-based; settings: Mus musculus, BaF3, c-KIT V560G/D816V cells, read-out: Cell (nM) c-KIT V560G/D816V (GI50 class)
Summary of the method: as §1

[4] = target: T1, human PDGFR-β(wt) (Homo sapiens, UniProt P09619); test: Enzyme inhibitory activity, ADP-Glo kinase assay, PDGFR-β(wt); format: biochemical; settings: read-out: PDGFR-β (IC50 class)
T1 construct: purchased Signalchem P13-11G
Method: In order to evaluate the inhibitory activity of the compounds synthesized according to the above examples on PDGFR-α(wt), PDGFR-β(wt), c-KIT(wt), and c-KIT(D816V) kinases, the following method was performed. The compounds of examples were reacted with purified human PDGFR-α(wt) (Signalchem #P12-18G) enzyme, human PDGFR-β(wt) (Signalchem #P13-11G) enzyme, human c-KIT(wt) (Signalchem #K06-11BG) enzyme, human c-KIT(D816V) (Signalchem #C06-12LG) enzyme, and the enzyme inhibitory abilities were evaluated by the following method.
The reaction buffer was used as a composition of 40 mM Tris-HCl pH7.4, 20 mM MgCl2, 0.5 mg/ml BSA, 50 μM DTT, and the reactions of all the tests were carried out on the reaction buffer. The compound was diluted in 12 steps using a serial dilution method from a 10 mM DMSO stock, and the enzyme activity was measured at a final compound concentration of 10˜0.00005645 μM. During the test, the enzyme activity was confirmed using in vitro ADP-Glo™ kinase assay (Promega) after reacting with the proper concentration of human PDGFR-α(wt) enzyme, human PDGFR-β(wt), human c-KIT(wt) enzyme, and human c-KIT(D816V) enzyme with purified ATP and enzyme substrate at 25° C. for 1˜2 hours. At a ratio of 2:2:1, an enzyme-active reaction solution, an ADP-Glo reaction solution, and an enzyme-active detection solution were reacted to measure the inhibition of the enzyme's activity with luminoscence. Based on the […] of the enzyme activity of the solvent control that was not treated with the compound, the degree of enzyme activity inhibition was calculated according to the treatment concentration of each compound, and the concentration of each compound that inhibits 50% of enzyme activity was determined as IC50 (nM) value and the value was obtained by using GraphPad Prism 8.3.0 (GraphPad software Inc., San Diego) software. (A: IC50≤50 nM; B: 50 nM<IC50≤100 nM; C: 100 nM<IC50≤500 nM; D: IC50>500 nM).

T1 sequence (P09619 33-1106): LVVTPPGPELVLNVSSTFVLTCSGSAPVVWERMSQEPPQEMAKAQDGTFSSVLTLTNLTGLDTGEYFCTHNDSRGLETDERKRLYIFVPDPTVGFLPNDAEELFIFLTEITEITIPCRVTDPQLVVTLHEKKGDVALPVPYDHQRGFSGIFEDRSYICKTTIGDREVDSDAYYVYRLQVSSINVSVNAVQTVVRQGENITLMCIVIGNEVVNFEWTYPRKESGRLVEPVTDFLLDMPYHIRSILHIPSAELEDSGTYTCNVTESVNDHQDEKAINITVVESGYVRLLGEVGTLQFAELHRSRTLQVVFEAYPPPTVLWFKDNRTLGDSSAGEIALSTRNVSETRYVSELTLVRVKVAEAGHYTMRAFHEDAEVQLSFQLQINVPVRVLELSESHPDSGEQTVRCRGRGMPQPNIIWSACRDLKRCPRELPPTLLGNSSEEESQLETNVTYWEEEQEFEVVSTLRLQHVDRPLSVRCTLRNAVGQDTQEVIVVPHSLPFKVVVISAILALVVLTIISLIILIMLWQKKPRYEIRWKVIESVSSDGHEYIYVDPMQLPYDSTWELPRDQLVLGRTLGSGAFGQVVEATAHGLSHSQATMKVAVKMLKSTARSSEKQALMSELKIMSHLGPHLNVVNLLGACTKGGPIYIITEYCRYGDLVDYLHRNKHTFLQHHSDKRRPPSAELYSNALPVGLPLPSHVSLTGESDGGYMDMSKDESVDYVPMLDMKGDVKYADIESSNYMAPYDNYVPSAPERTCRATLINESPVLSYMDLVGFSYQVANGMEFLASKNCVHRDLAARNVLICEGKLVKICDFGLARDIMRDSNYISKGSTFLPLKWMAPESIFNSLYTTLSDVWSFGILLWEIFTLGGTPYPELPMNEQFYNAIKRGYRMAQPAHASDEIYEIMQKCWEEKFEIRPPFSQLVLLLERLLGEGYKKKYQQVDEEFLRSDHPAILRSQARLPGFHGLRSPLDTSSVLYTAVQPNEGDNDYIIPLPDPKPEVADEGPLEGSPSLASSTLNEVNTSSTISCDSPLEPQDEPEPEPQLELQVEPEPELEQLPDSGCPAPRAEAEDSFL

SMILES: COCCN1CCC(COc2cc3ncnc(-c4ccc(NC(=O)Cc5ccc6c(c5)OCO6)c(F)c4)c3cc2OC)CC1 [Example 52, 2-(benzo[d][1,3]dioxol-5-yl)-N-(2-fluoro-4-(6-methoxy-7-((1-(2-methoxyethyl)piperidin-4-yl)methoxy)quinazolin-4-yl)phenyl)acetamide]
- GI50 [1]: ≤ 200 nM

SMILES: COc1cc2ncnc(-c3ccc(NC(=O)Cc4ccc(C(F)(F)F)cc4)cc3)c2cc1OC(=O)N1CCN(C)CC1 [Example 132, 7-methoxy-4-(4-(2-(4-(trifluoromethyl)phenyl)acetamido)phenyl)quinazolin-6-yl 4-methylpiperazin-1-carboxylate]
- GI50 [1]: ≤ 200 nM
- GI50 [2]: ≤ 200 nM
- GI50 [3]: > 500 nM

SMILES: COc1ccc(CC(=O)Nc2ccc(-c3ncnc4cc(OCC5CCN(C)CC5)c(OC)cc34)cc2)cn1 [Example 100, N-(4-(6-methoxy-7-((1-methylpiperidin-4-yl)methoxy)quinazolin-4-yl)phenyl)-2-(6-methoxypyridin-3-yl)acetamide]
- GI50 [1]: ≤ 200 nM
- pIC50 [4]: ≥ 7.30
- GI50 [3]: ≤ 200 nM

SMILES: COc1cc2c(-c3ccc(NC(=O)Cc4ccc5c(c4)OCO5)c(C)c3)ncnc2cc1OCCCN1CCN(C)CC1 [Example 164]
- GI50 [1]: ≤ 200 nM
- pIC50 [4]: ≥ 7.30

SMILES: COCCOc1cc2ncnc(-c3ccc(NC(=O)Cc4ccc(C(F)(F)F)nc4)cc3)c2cc1OC [Example 118, N-(4-(6-methoxy-7-(2-methoxyethoxy)quinazolin-4-yl)phenyl)-2-(6-(trifluoromethyl)pyridin-3-yl)acetamide]
- GI50 [1]: ≤ 200 nM
- GI50 [3]: ≤ 200 nM

SMILES: COc1cc2c(-c3ccc(NC(=O)Cc4ccc5c(c4)OCO5)c(F)c3)ncnc2cc1OCCCN1CCN(C)CC1 [Example 163, 2-(benzo[d][1,3]dioxol-5-yl)-N-(2-fluoro-4-(6-methoxy-7-(3-(4-methylpiperazin-1-yl)propoxy)quinazolin-4-yl)phenyl)acetamide]
- GI50 [1]: ≤ 200 nM
- pIC50 [4]: ≥ 7.30

SMILES: COc1cc2c(-c3ccc(NC(=O)Cc4ccc(C(F)(F)F)cc4)c(F)c3)ncnc2cc1OCCCN1CCN(C)CC1 [Example 50, N-(2-fluoro-4-(6-methoxy-7-(3-(4-methylpiperazin-1-yl)propoxy)quinazolin-4-yl)phenyl)-2-(4-(trifluoromethyl)phenyl)acetamide]
- GI50 [1]: ≤ 200 nM
- pIC50 [4]: ≥ 7.30

SMILES: COc1cc2c(-c3ccc(NC(=O)C(C)c4ccco4)cc3)ncnc2cc1OCCCN1CCN(C)CC1 (stereo not shown) [Example 48, 2-(furan-2-yl)-N-(4-(6-methoxy-7-(3-(4-methylpiperazin-1-yl)propoxy)quinazolin-4-yl)phenyl)propanamide]
- GI50 [1]: ≤ 200 nM
- pIC50 [4]: ≥ 7.30

SMILES: CCN1CCCC(COc2cc3ncnc(-c4ccc(NC(=O)Cc5ccc(OC)nc5)cc4)c3cc2OC)C1 (stereo not shown) [Example 109, N-(4-(7-((1-ethylpiperidin-3-yl)methoxy)-6-methoxyquinazolin-4-yl)phenyl)-2-(6-methoxypyridin-3-yl)acetamide]
- GI50 [1]: ≤ 200 nM
- pIC50 [4]: ≥ 7.30
- GI50 [3]: ≤ 200 nM

SMILES: CCN1CCC(COc2cc3ncnc(-c4ccc(NC(=O)Cc5ccc6c(c5)OCO6)cc4)c3cc2OC)CC1 [Example 99, 2-(benzo[d][1,3]dioxol-5-yl)-N-(4-(7-((1-ethylpiperidin-4-yl)methoxy)-6-methoxyquinazolin-4-yl)phenyl)acetamide]
- GI50 [1]: ≤ 200 nM
- pIC50 [4]: ≥ 7.30
- GI50 [3]: ≤ 200 nM

SMILES: COc1cc2c(-c3ccc(C(=O)NCc4ccc5c(c4)OCO5)cc3)ncnc2cc1OCCCN1CCN(C)CC1 [Example 166, N-(benzo[d][1,3]dioxol-5-ylmethyl)-4-(6-methoxy-7-(3-(4-methylpiperazin-1-yl)propoxy)quinazolin-4-yl)benzamide]
- GI50 [1]: ≤ 200 nM
- pIC50 [4]: ≥ 7.30

SMILES: COc1cc2c(-c3ccc(NC(=O)Cc4ccc(C(F)(F)F)nc4)cc3)ncnc2cc1OCC1CCN(C(C)C)CC1 [Example 121, N-(4-(7-((1-isopropylpiperidin-4-yl)methoxy)-6-methoxyquinazolin-4-yl)phenyl)-2-(6-(trifluoromethyl)pyridin-3-yl)acetamide]
- GI50 [1]: ≤ 200 nM
- pIC50 [4]: ≥ 7.30
- GI50 [3]: ≤ 200 nM

SMILES: COc1cc2c(-c3ccc(C(=O)NCc4ccc(C(F)(F)F)cc4)cc3)ncnc2cc1OCCCN1CCN(C)CC1 [Example 165, 4-(6-methoxy-7-(3-(4-methylpiperazin-1-yl)propoxy)quinazolin-4-yl)-N-(4-(trifluoromethyl)benzyl)benzamide]
- GI50 [1]: ≤ 200 nM
- pIC50 [4]: ≥ 7.30

SMILES: CCN1CCCC(COc2cc3ncnc(-c4ccc(NC(=O)Cc5ccc(C(F)(F)F)nc5)cc4)c3cc2OC)C1 (stereo not shown) [Example 110, N-(4-(7-((1-ethylpiperidin-3-yl)methoxy)-6-methoxyquinazolin-4-yl)phenyl)-2-(6-(trifluoromethyl)pyridin-3-yl)acetamide]
- GI50 [1]: ≤ 200 nM
- pIC50 [4]: ≥ 7.30
- GI50 [3]: ≤ 200 nM

SMILES: COc1cc2c(-c3ccc(C(=O)NCc4ccc(F)c(F)c4)cc3)ncnc2cc1OCCCN1CCN(C)CC1 [Example 167, N-(3,4-difluorobenzyl)-4-(6-methoxy-7-(3-(4-methylpiperazin-1-yl)propoxy)quinazolin-4-yl)benzamide]
- GI50 [1]: ≤ 200 nM
- pIC50 [4]: ≥ 7.30

SMILES: COc1cc2c(-c3ccc(NC(=O)Cc4ccc5c(c4)OCO5)cc3)ncnc2cc1OCCCN1CCN(C)CC1 [Example 54, 2-(benzo[d][1,3]dioxol-5-yl)-N-(4-(6-methoxy-7-(3-(4-methylpiperazin-1-yl)propoxy)quinazolin-4-yl)phenyl)acetamide]
- GI50 [1]: ≤ 200 nM
- pIC50 [4]: ≥ 7.30

SMILES: COc1cc2c(-c3ccc(NC(=O)Nc4cccc(C(F)(F)F)c4)cc3)ncnc2cc1OCCCN1CCN(C)CC1 [Example 169]
- GI50 [1]: ≤ 200 nM

SMILES: COc1cc2c(-c3ccc(NC(=O)Cc4ccc(C(F)(F)F)cc4)c(C)c3)ncnc2cc1OCCCN1CCN(C)CC1 [Example 49, N-(4-(6-methoxy-7-(3-(4-methylpiperazin-1-yl)propoxy)quinazolin-4-yl)-2-methylphenyl)-2-(4-(trifluoromethyl)phenyl)acetamide]
- GI50 [1]: ≤ 200 nM
- pIC50 [4]: ≥ 7.30

SMILES: COCCN1CCC(COc2cc3ncnc(-c4ccc(NC(=O)Cc5ccc(Cl)nc5)cc4)c3cc2OC)CC1 [Example 113, 2-(6-chloropyridin-3-yl)-N-(4-(6-methoxy-7-((1-(2-methoxyethyl)piperidin-4-yl)methoxy)quinazolin-4-yl)phenyl)acetamide]
- GI50 [1]: ≤ 200 nM
- pIC50 [4]: ≥ 7.30
- GI50 [3]: ≤ 200 nM

SMILES: COc1cc2c(-c3ccc(NC(=O)Cc4cscn4)cc3)ncnc2cc1OCCCN1CCN(C)CC1 [Example 51, N-(4-(6-methoxy-7-(3-(4-methylpiperazin-1-yl)propoxy)quinazolin-4-yl)phenyl)-2-(thiazole-4-yl)acetamide]
- GI50 [1]: ≤ 200 nM
- pIC50 [4]: ≥ 7.30

SMILES: COCCN1CCC(COc2cc3ncnc(-c4ccc(NC(=O)Cc5ccc6c(c5)OCO6)c(C)c4)c3cc2OC)CC1 [Example 53, 2-(benzo[d][1,3]dioxol-5-yl)-N-(4-(6-methoxy-7-((1-(2-methoxyethyl)piperidin-4-yl)methoxy)quinazolin-4-yl)-2-methylphenyl)acetamide]
- GI50 [1]: ≤ 200 nM
